Data on seven compounds can be found in US6339081B1, “Composition and use” (priority 1996, dated 2002).

Where two headings read alike, the source gives them in different places.

What all share (assay type): cell-based
Test [1] relates to Pseudomonas aeruginosa NCIB 10421. The experiment in a line: MIC and Fractional Inhibitory Concentration (FIC) in microtitre array. On the procedure: The gram negative bacterium, Pseudomonas aeruginosa NCIB 10421 was grown in nutrient broth to stationary phase during 18 hours and contained approximately 10^9 organisms/ml. A 0.1% (v/v) inoculum was used to seed fresh nutrient broth and 100 μl was then added to each well of a microtitre plate, except for the first well which contained 200 μl.
Solutions of zinc acetate (ZnAc) and the 2:1 zinc complex of 3-hydroxy-4-methylthiazol-2(3H)-thione (ZHMT), respectively, were prepared in nutrient broth at twice the final concentration to be used in the microtitre array. A microtitre array was prepared with concentration of zinc acetate and ZHMT from twice the MIC down to zero concentration in a 10×10 array. Since the array contains only 96 wells, the highest and lowest concentration of the zinc acetate and ZHMT were omitted. The dilution of the ZHMT was doubled across the ordinate axis of the array by transferring 100 μl aliquots so that the final volume in each well was 200 μl. The microtitre plate was then incubated for 16 to 24 hours at 37° C. and the presence of bacterial growth assessed visually.
The FIC is defined as the sum of the fractional inhibitory concentration of each component. The FIC of the individual component is the ratio of the concentration of the component in the binary mixture divided by its MIC.

A further test has as its system mixed bacterial culture. In words: Preservation of unpreserved latex, repeated challenge with mixed bacterial culture. To be noted: for Viable bacteria, First inoculum (days) 3 / Viable bacteria, First inoculum (days) 5 / Viable bacteria, First inoculum (days) 7 / Viable bacteria, Second inoculum (days) 3 / Viable bacteria, Second inoculum (days) 5 / Viable bacteria, Second inoculum (days) 7 / Viable bacteria, Third inoculum (days) 3 / Viable bacteria, Third inoculum (days) 5 / Viable bacteria, Third inoculum (days) 7: latex, Amount 200 ppm of each component present; for antimicrobial activity in latex: zinc salt alone, 200 ppm (Table 1). Also noted: key to Viable bacteria, Third inoculum (days) 5 / Viable bacteria, Third inoculum (days) 7 / Viable bacteria, First inoculum (days) 3 / Viable bacteria, First inoculum (days) 5 / Viable bacteria, First inoculum (days) 7 / Viable bacteria, Second inoculum (days) 3 / Viable bacteria, Second inoculum (days) 5 / Viable bacteria, Second inoculum (days) 7 / Viable bacteria, Third inoculum (days) 3: C is confluent growth over the surface; − is no visible colonies; + is few visible colonies; ++ is clusters of discreet colonies. The procedure:
Aliquots (25 parts) of unpreserved latex containing 50% by weight solids of a copolymer of 2-ethylhexylacrylate/acrylic acid at pH 8.5 were formulated with zinc acetate and the 2:1 zinc complex of 3-hydroxy4-methyl thiazol-2(3H)-thione in the amounts shown in Table 1 below. After formulation, each aliquot was stored at 20° C. for 1 week prior to inoculation with a mixed bacterial culture.
The bacterial culture was prepared by culturing the following seven bacteria in nutrient agar for 24 hours at 30° C.
Each of the individual bacterium was prepared at a concentration of 10^8 cells/ml in quarter strength Ringers solution by means of a Thoma counting chamber. The mixed inoculum was prepared by mixing equal volumes of the cultures containing the individual bacterium.
The latex aliquots were repeatedly inoculated at 0, 7 and 14 day intervals with 0.5 ml mixed inoculum (2×10^6 cells/ml) and incubated at 30° C. The number of viable bacteria was determined by streaking a small portion of each aliquot of latex onto nutrient agar after 3, 5 and 7 days followed by visible assessment after incubation for 2 days at 30° C.

For test [2], the system named is contaminated matt paint millbase. In words: Viable cells in contaminated matt paint millbase. The procedure:
25 ml Aliquots of a contaminated matt paint millbase were formulated with the 2:1 zinc complex of 3-hydroxy-4-methylthiazol-2(3H)-thione and zinc acetate as shown in Table 2 below. The number of variable cells was determined by streaking a small portion of each aliquot of millbase onto nutrient agar after 5, 7 and 14 days. The number of cells was determined by visible assessment following incubation for 2 days at 30° C.

The mark [3] stands for this setting: ZnAc replaced by the same weight of the metal salt.

As to manganese chloride, the “synergy with ZHMT” value in test [1] (setting [3]) is “no synergy”.
As for `[Cl][Cu][Cl]` [cupric chloride], in test [1] (setting [3]), the “synergy with ZHMT” value is “no synergy”.
As to `[Cl][Fe]([Cl])[Cl]` [ferric chloride], in test [1] (ZnAc replaced with half the weight of the metal salt), the “effect on the ZHMT” value is listed as “antagonistic effect”.
As to `[Cl-].[Cl-].[Zn+2]` [ZC, zinc chloride], in the test on mixed bacterial culture, the “Viable bacteria, First inoculum (days) 3” value was “+”; the “Viable bacteria, First inoculum (days) 5” value is on record as “−”; the “Viable bacteria, First inoculum (days) 7” value is “−”; the “Viable bacteria, Second inoculum (days) 3” value was “++”. Besides, in the test on mixed bacterial culture, the “Viable bacteria, Second inoculum (days) 5” value is listed as “++”; the “Viable bacteria, Second inoculum (days) 7” value is recorded as “++”; the “Viable bacteria, Third inoculum (days) 3” value is “C”; the “Viable bacteria, Third inoculum (days) 5” value is “C”. In the test with mixed bacterial culture, the “Viable bacteria, Third inoculum (days) 7” value is recorded as “C” and the “antimicrobial activity in latex” value was “no antimicrobial activity”.
As for `[Cl-].[Cl-].[Mg+2]` [magnesium chloride], the “synergy with ZHMT” value in test [1] was “no synergy”.
For the compound `CC(=O)[O-].CC(=O)[O-].[Zn+2]` [ZA, zinc acetate], in the test with mixed bacterial culture, the “Viable bacteria, First inoculum (days) 3” value is on record as “−”; the “Viable bacteria, First inoculum (days) 5” value is recorded as “−”; the “Viable bacteria, First inoculum (days) 7” value is “−”; the “Viable bacteria, Second inoculum (days) 3” value was “++”. Moreover, in the test with mixed bacterial culture, the “Viable bacteria, Second inoculum (days) 5” value is “++”; the “Viable bacteria, Second inoculum (days) 7” value is “++”; the “Viable bacteria, Third inoculum (days) 3” value is listed as “++”; the “Viable bacteria, Third inoculum (days) 5” value is “++”. Besides, in the test on mixed bacterial culture, the “Viable bacteria, Third inoculum (days) 7” value is recorded as “++” and the “antimicrobial activity in latex” value is “no antimicrobial activity”. The “effect on activity of the metal complex” value in test [2] is reported as “increases the bacterial activity of the metal complex”. Also, in test [1], the FIC was determined as 1 and the “Minimum Inhibitory Concentrations (MIC)” value turned out to be 250 ppm.
Take `[O-]n1ccccc1=S.[O-]n1ccccc1=S.[Zn+2]` [2:1 zinc complex of 1-hydroxypyridine-2-thione]: the “synergy with ZnAc” value in test [1] (ZHMT replaced by this complex) is reported as “no synergy”.
